Test results taken from article PMC3130785, “Small Compound 6-O-Angeloylplenolin Induces Mitotic Arrest and Exhibits Therapeutic Potentials in Multiple Myeloma” (PLoS ONE, 2011).

Experiments:
Staphylococcus aureus = system: Staphylococcus aureus; design: method as in PMID 9461679, PMID 8657743, PMID 12521264; settings: cited from earlier work
Bacillus subtilis = system: Bacillus subtilis; design: method as in PMID 9461679, PMID 8657743, PMID 12521264; settings: cited from earlier work
pERK1/2 = assay: Western blotting, 6-OAP/BOR; type: cell-based, human; settings: MM.1S; BOR 3 nM for 12 to 24 h with 6-OAP 5 µM
Experimental: Cell pellets were lysed in RIPA buffer containing 50 mM Tris pH 8.0, 150 mM NaCl, 0.1% SDS, 0.5% deoxycholate, 1% NP-40, 1 mM DTT, 1 mM NaF, 1 mM sodium vanadate, and protease inhibitors cocktail (Sigma). For immunoprecipitations, cells were lysed on ice for 15 minutes in RIPA buffer. Lysates were centrifuged. The supernatant was incubated with indicated antibodies overnight, after which protein A/G Plus beads (Santa Cruz Biotechnology) were added and incubated for 3 h. The beads were washed 4 times in RIPA buffer. Then the beads were resuspended in 1× sample buffer and boiled for 3 min. Protein extracts were quantitated and loaded on 8% to 12% sodium dodecyl sulfate polyacrylamide gel, electrophoresed, and transferred to a nitrocellulose membrane (Whatman). The membrane was incubated with primary antibody, washed, and incubated with horseradish peroxidase (HRP)–conjugated secondary antibody (Pierce). Detection was performed by using a chemiluminescent western detection kit (Cell Signaling). […]

MM.1R cells = assay: MTT assay, Dex with or without 6-OAP; type: cell-based, human; settings: Dex 1 to 2 µM alone, 48 h, MTT
Experimental: U266, RPMI 8226 cells (1×10^4), primary CD138+ cells, PBMCs (5×10^4), and BMSCs (1×10^4) were cultured in 96-well dishes and incubated without or with 6-OAP at indicated concentration for 48 h. MM.1S and MM.1R cells (2×10^4) were seeded into 96-well dishes and pre-cultured for 24 h, then treated with 6-OAP for 48 h. Cell proliferation was determined by MTT assay. Cell viability was estimated by trypan blue dye exclusion.
Figure 4 6-OAP enhances cytotoxicity of Dox, Dex and BOR to MM cells. (A through C) MM.1S cells were treated for 48 h with Dox (A), Dex (B) or BOR (C) in the presence or absence of 6-OAP at 5 µM. MTT assay was used to test the proliferation of MM.1S cells. (D) MM.1R cells were treated for 48 h with Dex in the presence or absence of 6-OAP at 7.5 µM. MTT assay was used to test the proliferation of MM.1R cells. *p<.001,** p<.05. (E) MM.1S cells were cultured with control media (con), 6-OAP (O, 5 µM), BOR (B, 3 nM), or 6-OAP (5 µM) plus BOR (3 nM) (OB) for indicated time points. Cells were then lysed and subjected to Western blotting using indicated antibodies. CF, cleavage fragment.

Row | Structure (SMILES) | antibacterial activity (Staphylococcus aureus) | antibacterial activity (Bacillus subtilis) | 6-OAP-induced pERK1/2 upregulation (pERK1/2) | inhibition of cell proliferation (MM.1R cells)
1 | CC(C)C(=O)OC1C2C(CC(C)C3C=CC(=O)C31C)OC(=O)C2C (stereo not drawn) [6-O-isobutyroylplenolin] | exhibit antibacterial activity | exhibit antibacterial activity | – | –
2 | C=C(C)C(=O)OC1C2C(CC(C)C3C=CC(=O)C31C)OC(=O)C2C (stereo not drawn) [6-O-methylacrylylplenolin] | exhibit antibacterial activity | exhibit antibacterial activity | – | –
3 | CC(C)C[C@H](NC(=O)[C@H](Cc1ccccc1)NC(=O)c1cnccn1)B(O)O [BOR, bortezomib, reference compound] | – | – | dramatically inhibited 6-OAP-induced pERK1/2 upregulation | –
4 | C[C@@H]1C[C@H]2[C@@H]3CCC4=CC(=O)C=C[C@]4(C)[C@@]3(F)[C@@H](O)C[C@]2(C)[C@@]1(O)C(=O)CO [Dex, Dexamethasone, reference compound] | – | – | – | slight inhibition rate
